Assay results from patent US20230000842A1, “METHODS OF TREATING CARTILAGE DISORDERS THROUGH INHIBITION OF CLK AND DYRK” (SAMUMED, LLC, priority 2019, published 2023).

Columns and labels:
[1] = test system: MMP-3 levels in supernatant of chondrocytes stimulated with IL1-β; assay: Chondrocyte protection assay compound screening (MMP-3 LANCE Ultra); type: cell-based, human; details: Homo sapiens, Chondrocyte, IL1-β 10 ng/mL overnight, 11-point curves from 3 μM to 0.05 nM; for Emax: read-out: Maximum % Inhibition
Outline: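 Primary human chondrocytes (passage 2–5) in differentiation medium were stimulated with 10 ng/mL IL1-β for an overnight incubation at 37 °C. MMP-3 in 1:7-diluted supernatant was read by TR-FRET immunoassay against a standard curve, normalised to IL1-β-stimulated wells; EC50 and maximum % inhibition came from nonlinear regression.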

[2] = test system: Wnt pathway activity (SW480 colon carcinoma cells stably expressing the Sp5-Luc reporter); assay: Wnt pathway activity screening assay (Sp5-Luc reporter gene assay); details: Homo sapiens, SW480, Table 4; SW480 cells stably expressing Sp5-Luc reporter, 10-point dose-response from 10 μM, 36 to 48 hours
[3] = biological target: CLK3 kinase (Homo sapiens, UniProt P49761); assay: CLK3 kinase activity assay (Z-lyte FRET); type: biochemical; details: Z-lyte Ser/Thr 18 peptide, 156 μM ATP, 1 h at room temperature;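 further: kinase activity read as coumarin/fluorescein emission ratio by FRET, unphosphorylated peptide as 0% and phosphorylated peptide as 100% control, values from non-linear regression of dose-response curves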
Protocol: This is a non-radioactive assay using fluorescence resonance energy transfer (FRET) between coumarin and fluorescein to detect kinase activity which is represented as a ratio of coumarin emission/fluorescein emission.
The mixture was allowed to incubate with the representative compounds for one hour at room temperature. All reactions were performed in duplicate. Unphosphorylated (“0% Control”) and phosphorylated (“100% control”) forms of Ser/Thr 18 served as control reactions. Additionally, an 11-point dose-response curve of Staurosporine (1 μM top) was run to serve as a positive compound control.
After incubation, Development Reagent A was diluted in Development Buffer then added to the reaction and allowed to further incubate for one hour at room temperature.
Dose-response curves were generated and inhibitory concentration (IC50) values were calculated using non-linear regression curve fit in the Dotmatics' Studies Software (Bishops Stortford, UK).

[4] = biological target: CLK2 kinase (Homo sapiens, UniProt P49760); assay: CLK2 kinase activity assay (Z-lyte FRET); type: biochemical; details: Z-lyte Ser/Thr 6 peptide, 60 μM ATP, 1 h at room temperature;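 further: FRET read-out as coumarin to fluorescein emission ratio, unphosphorylated peptide as 0% and phosphorylated peptide as 100% controls, duplicate reactions, non-linear regression fit of dose-response curves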
CLK2 kinase, sequence (P49760 whole entry): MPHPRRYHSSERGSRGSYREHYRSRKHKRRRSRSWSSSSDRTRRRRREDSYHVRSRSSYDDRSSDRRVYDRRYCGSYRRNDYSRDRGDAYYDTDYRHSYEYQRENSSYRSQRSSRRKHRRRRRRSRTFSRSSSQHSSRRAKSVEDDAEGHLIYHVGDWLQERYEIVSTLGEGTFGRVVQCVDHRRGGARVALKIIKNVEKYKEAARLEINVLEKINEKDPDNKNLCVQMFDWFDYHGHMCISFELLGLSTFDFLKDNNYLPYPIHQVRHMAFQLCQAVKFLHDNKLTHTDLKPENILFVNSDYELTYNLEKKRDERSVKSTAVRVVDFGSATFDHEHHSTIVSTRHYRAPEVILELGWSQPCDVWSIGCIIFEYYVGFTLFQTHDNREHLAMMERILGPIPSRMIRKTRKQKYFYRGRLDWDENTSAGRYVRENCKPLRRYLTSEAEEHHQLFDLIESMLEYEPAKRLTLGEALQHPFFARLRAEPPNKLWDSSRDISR

CLK3 kinase, sequence (P49761 whole entry): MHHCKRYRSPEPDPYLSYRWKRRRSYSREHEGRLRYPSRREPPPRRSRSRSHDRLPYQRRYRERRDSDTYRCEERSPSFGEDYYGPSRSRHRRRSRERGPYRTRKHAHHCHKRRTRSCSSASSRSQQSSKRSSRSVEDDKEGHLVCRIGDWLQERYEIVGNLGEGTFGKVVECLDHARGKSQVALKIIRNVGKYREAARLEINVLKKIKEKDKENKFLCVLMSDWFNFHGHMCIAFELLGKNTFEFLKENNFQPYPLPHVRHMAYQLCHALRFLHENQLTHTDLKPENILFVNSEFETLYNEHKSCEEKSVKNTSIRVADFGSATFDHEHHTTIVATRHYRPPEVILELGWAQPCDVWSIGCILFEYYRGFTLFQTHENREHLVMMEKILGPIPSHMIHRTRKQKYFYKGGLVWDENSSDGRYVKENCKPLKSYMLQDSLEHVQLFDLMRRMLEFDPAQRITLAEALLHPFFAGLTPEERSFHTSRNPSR

EC50 [2]	EC50 [3]	EC50 [4]	SMILES	EC50 [1]	Emax [1]
120 nM	48 nM	1 nM	CN1CCC(Oc2ccc(NC(=O)c3n[nH]c4cc(F)c(-c5cnn(C)c5)cc34)cn2)CC1 [compound 110]	1080 nM	87.2%
684 nM	391 nM	1 nM	O=C(Nc1ccc(OC(F)F)cc1)c1n[nH]c2ccc(-c3cnc4n3CCNC4)cc12 [compound 116]	13 nM	61.2%
0.6 nM	57 nM	1 nM	CC(C)CC(=O)Nc1cncc(-c2cnc3[nH]nc(-c4nc5c(-c6cccc(F)c6)cncc5[nH]4)c3c2)c1 [compound 125]	≥ 3000 nM	
85.4 nM	23 nM	3 nM	CC(C)(C)C(=O)Nc1cncc(-c2ccc3[nH]nc(-c4nc5c(-c6cccnc6)cncc5[nH]4)c3c2)c1 [compound 188]	1100 nM	100%
4570 nM	16 nM	2 nM	Cc1cn(-c2cncc3[nH]c(-c4n[nH]c5ccc(-c6cncc(NC(=O)CC(C)C)c6)cc45)nc23)cn1 [compound 225]	845 nM	89.2%
162 nM	34 nM	4 nM	FC1(F)CCN(Cc2cncc(-c3cnc4[nH]nc(-c5nc6c(-c7ccoc7)nccc6[nH]5)c4c3)c2)C1 [compound 241]	0.1 nM	87.1%
> 10000 nM	66 nM	1 nM	O=C(CC1CCNCC1)Nc1cncc(-c2ccc3[nH]nc(-c4nc5c(-c6ccsc6)nccc5[nH]4)c3n2)c1 [compound 248]	≥ 3000 nM	40.7%
620 nM	44 nM	4 nM	Cc1ncc(-c2ccc3[nH]nc(-c4nc5c(-c6cc(F)cc(NCCN(C)C)c6)ccnc5[nH]4)c3n2)n1C [compound 287]	12.8 nM	74.2%
96.6 nM	17 nM	2 nM	Cc1ccncc1-c1cc2c(-c3nc4c(-c5cc(F)cc(CNS(C)(=O)=O)c5)cncc4[nH]3)n[nH]c2cn1 [compound 290]	604 nM	
285 nM	18 nM	1 nM	O=C(Nc1cncc(-c2ccc3[nH]nc(-c4cc5cnccc5[nH]4)c3c2)c1)C1CCCCC1 [compound 431]	6.7 nM	100%
165 nM	19 nM	2 nM	c1cnc2cc(-c3n[nH]c4ccc(-c5cncc(CN6CCCCC6)c5)cc34)[nH]c2c1 [compound 449]	319 nM	100%
80 nM	26 nM	5 nM	CC(C)N1CCC(c2nc(C(=O)Nc3cc4cc(-c5cnn(C)c5)ccc4cn3)co2)CC1 [compound 563]	57.3 nM	72.4%
1320 nM	37 nM	2 nM	CN(C)C1CN(c2ncc(C(=O)Nc3cc4cc(-c5cnn(C)c5)ccc4cn3)s2)C1 [compound 564]	71.4 nM	0%
471 nM	164 nM	8 nM	CO[C@H]1CC[C@H](C(=O)Nc2cc3cc(-c4cnn(C)c4CN4CCCCC4)ccc3cn2)CC1 [compound 569]	≥ 3000 nM	0.2%
594 nM	143 nM	9 nM	Cn1ncc(-c2ccc3cnc(NC(=O)[C@H]4CC[C@H](CO)CC4)cc3c2)c1CN1CCCCC1 [compound 570]	≥ 3000 nM	80.6%
706 nM	318 nM	7 nM	Cn1ncc(-c2ccc3cnc(NC(=O)C4CCN(C(=O)c5ccccc5)CC4)cc3c2)c1CN1CCCCC1 [compound 571]	35 nM	51%
32.7 nM	19 nM	2 nM	CC(C)N1CCC(n2cc(C(=O)Nc3cc4cc(-c5cn(C)nn5)ccc4cn3)cn2)CC1 [compound 579]	492 nM	91%
115 nM	23 nM	7 nM	CC(C)n1cc(C(=O)Nc2cc3cc(-c4cncn4C(C)C)ccc3cn2)cn1 [compound 586]	4.6 nM	41.7%
2210 nM	678 nM	8 nM	Cc1ncc(-c2ccc3cnc(NC(=O)C4(F)CC4)cc3c2)n1C [compound 587]	18.7 nM	
102 nM	31 nM	2 nM	Cc1ncc(C(=O)Nc2cc3cc(-c4cnc(C)n4C)ccc3cn2)s1 [compound 589]	≥ 3000 nM	43.5%
710 nM	42 nM	1 nM	CN1CCN(c2cc(C(=O)Nc3cc4cc(-c5ccc(N)nc5)ccc4cn3)ccn2)CC1 [compound 596]	798 nM	39.9%

Second part, the compound before the results:

SMILES	EC50 [2]	EC50 [3]	EC50 [4]	EC50 [1]	Emax [1]
CN1CCC(Oc2ncc(NC(=O)c3n[nH]c4cc(F)c(-c5cnn(C)c5)cc34)cc2F)CC1 [compound 111]	1150 nM	89 nM	1 nM	12.6 nM	76.2%
Cn1cc(-c2cc3c(C(=O)Nc4ccc5c(c4)CNC5)n[nH]c3cc2F)cn1 [compound 112]	793 nM	116 nM	1 nM	1200 nM	88.3%
O=C(Nc1ccc(CN2CCCC2)cc1)c1n[nH]c2ccc(-c3cnn(C4CC4)c3)cc12 [compound 113]	451 nM	133 nM	1 nM	≥ 3000 nM	57%
Cc1ncc(NC(=O)c2n[nH]c3ccc(-c4cnn(C5CCN(C)CC5)c4)cc23)s1 [compound 114]	95 nM	48 nM	1 nM	≥ 3000 nM	62.8%
Cc1cc(-c2ccc3[nH]nc(C(=O)Nc4ccc(OC5CCN(C)CC5)cc4)c3c2)sn1 [compound 117]	645 nM	147 nM	2 nM	44.2 nM	94.4%
O=C(Nc1cccnc1)c1n[nH]c2cnc(-c3cncc(CN4CCCCC4)c3)cc12 [compound 118]	848 nM	601 nM	8 nM	138 nM	21.1%
CCN(C)Cc1cncc(-c2cnc3[nH]nc(-c4nc5c(-c6cccc(F)c6)cncc5[nH]4)c3c2)c1 [compound 140]	643 nM	22 nM	2 nM	0.8 nM	76.4%
Fc1cccc(-c2cncc3[nH]c(-c4n[nH]c5cnc(-c6cncc(OC7CCNCC7)c6)cc45)nc23)c1 [compound 152]	> 10000 nM	33 nM	1 nM	1710 nM	31.8%
O=C(Nc1cncc(-c2ccc3[nH]nc(-c4nc5c(-c6cccnc6)cncc5[nH]4)c3c2)c1)c1ccccc1 [compound 192]	> 10000 nM	17 nM	5 nM	1.9 nM	95.5%
CCNCc1cncc(-c2ccc3[nH]nc(-c4nc5c(-c6ccccn6)nccc5[nH]4)c3c2)c1 [compound 199]	2130 nM	136 nM	2 nM	2.4 nM	80.9%
NC1CN(c2cncc(-c3ccc4[nH]nc(-c5nc6ccncc6[nH]5)c4c3)c2)C1 [compound 205]	344 nM	182 nM	1 nM	20.8 nM	61.5%
Fc1ccc(-c2cncc3[nH]c(-c4n[nH]c5cnc(-c6cncc(CN7CCCC7)c6)cc45)nc23)s1 [compound 264]	470 nM	35 nM	2 nM	≥ 3000 nM	81%
CN1CCC(Oc2ccc3[nH]c(-c4n[nH]c5ccc(-c6cnn(C)c6)cc45)nc3c2)CC1 [compound 299]	18.3 nM	29 nM	1 nM	170 nM	100%
CC#CC(=O)Nc1cc2cc(-c3cnn(C)c3)ccc2cn1 [compound 539]	513 nM	123 nM	7 nM	32.8 nM	42.3%
CN1CCC(Nc2cc(C(=O)Nc3cc4cc(-c5cnn(C)c5)ccc4cn3)ccn2)CC1 [compound 555]	65.6 nM	21 nM	1 nM	≥ 3000 nM	85.1%
CC(C)OC(=O)N1CCC(n2cc(C(=O)Nc3cc4cc(-c5cnn(C)c5)ccc4cn3)cn2)CC1 [compound 562]	54.5 nM	20 nM	1 nM	88.1 nM	34.8%
O=C(Nc1cc2cc(-c3cnn4c3CCNC4)ccc2cn1)c1ccc(OC(F)F)cc1 [compound 574]	375 nM	200 nM	2 nM	1920 nM	59.5%
Cc1nnc(C(=O)Nc2cc3cc(-c4cncn4C)ccc3cn2)s1 [compound 584]	1890 nM	177 nM	6 nM	71.5 nM	38.6%
CC(C)n1cc(C(=O)Nc2cc3cc(-c4cncn4C)ccc3cn2)cn1 [compound 585]	34.8 nM	13 nM	1 nM	1430 nM	77.9%
